# Test results: PMC8296985, “A Covalent Calmodulin Inhibitor as a Tool to Study Cellular Mechanisms of K-Ras-Driven Stemness” (Frontiers in Cell and Developmental Biology, 2021)
# Read-outs that look alike come from different tables or passages of the source.
# What was measured:
# [1] = test system: Hs 578T; assay: 3D spheroid (tumorosphere) formation assay, low attachment, serum-free, alamarBlue; type: cell-based; conditions: Homo sapiens
# Description: (§1) 3D spheroid formation assays were performed in 96-well low-attachment, suspension culture plates (cat. no. 655185, Cellstar, Greiner Bio-One) under serum-free condition. About 1,000 (MDA-MB-231, NCI-H358, and MIA PaCa-2) or 2,500 (Hs 578T) cells per well were seeded in 50 μl of either an RPMI medium (cat. no. 52400-025, Gibco, Thermo Fisher Scientific) (MDA-MB-231, A375, and NCI-H358) or DMEM (cat. no. 41965-039, Gibco, Thermo Fisher Scientific) (Hs 578T and MIA PaCa-2), containing 0.5% MethoCult (cat. no. SF H4636, Stemcell technologies), 1x B27 (cat. no. 17504044, Gibco, Thermo Fisher Scientific), 25 ng/ml EGF (cat. no. E9644, Sigma-Aldrich), and 25 ng/ml FGF (cat. no. RP-8628, Thermo Fisher Scientific). Cells were cultured for 3 days and then treated with compounds or vehicle control (DMSO 0.1% v/v in growth medium) for another 3 days. The cells were supplemented with a fresh growth medium on the third day together with the drug treatment. For knockdown experiments, cells were seeded in 12-well plates and treated with either 50 nM scrambled siRNA (cat. no. 1022076, QIAGEN) or indicated concentrations of siRNAs. Next day, cells were collected by trypsinization and re-plated into 96-well plates for 3D spheroid suspension culture.
# (§2) Spheroid formation efficiency was analyzed by an alamarBlue assay reagent (cat. no. DAL1100, Thermo Fisher Scientific). A 10% final volume of the alamarBlue reagent was added to each well of the plate and incubated for 4 h at 37°C. Then the fluorescence intensity was measured using the FLUOstar OPTIMA plate reader (BMG Labtech, Germany) with an excitation wavelength of 560 ± 5 nm and an emission wavelength of 590 ± 5 nm.
# (§3) To quantitatively profile the drug sensitivity with a more robust parameter than the IC50 or EC50 values, the drug sensitivity score (DSS) analysis was employed. DSS values are essentially normalized area under the curve (AUC) measures of dose-response inhibition data ([Yadav et al., 2014]). Drug response data files (in Excel) ready for online analysis were prepared according to the example file obtained from the DSS pipeline website, called Breeze^1 ([Potdar et al., 2020]). Either raw fluorescence intensity measurements or normalized % inhibition data (for BRET assay analysis) were uploaded.
# (§4) DSS3 was employed to emphasize drugs that obtain their response area over a relatively wide dose window, as compared to drugs that show increased response only at the higher end of the concentration range. After logistic fitting of the dose-response inhibition data, the area under the curve (AUC) was determined as the exact solution. A 10% minimal activity threshold (t) was set. The maximum (Cmax) and minimum (Cmin) concentrations were used for screening of the inhibitors, with Cmax = x2 and x1 concentration with minimal activity t.
# [2] = test system: MDA-MB-231; assay: as above; type: cell-based; conditions: for IC50: Homo sapiens; for KRAS/HRAS mutant cell line DSS3 ratio: MDA-MB-231 vs Hs 578T 3D spheroid formation, 0.6–40 μM, numbers above bars Fig. 1A,B
# Description: as §1, §2, §3, §4
# [3] = target: T1, mutCaM (CaM with K75Q, K77Q, and K148Q mutations) (Homo sapiens, UniProt P0DP23, K76Q/K78Q); assay: Fluorescence polarization assay with F-CaMKII peptide and His-mutCaM; type: binding; conditions: 50 nM His-mutCaM, 5 nM F-CaMKII, compared to wt CaM
# T1 construct: made in house; host or cells: E. coli BL21 Star (DE3)pLysS
# Description: Our numbering of CaM follows ([Kong Au and Chow Leung, 1998]) with Ala being the first amino acid in human CaM, as the N-terminal methionine of CaM is removed in most organisms ([Halling et al., 2016]). […] At A600 of 0.6–0.8, the culture was induced with 0.5 mM of isopropyl β-D-thiogalactopyranoside and expressed for 16 h at 25°C. Cells were collected by centrifugation and incubated on ice for 30 min. The cell suspension was sonicated in a lysis buffer (20 mM HEPES, pH 7.6, 150 mM NaCl, 5 mM MgCl2, 0.5 mg/ml lysozyme, and DNase I). The lysates were clarified by centrifugation at 18,000 g for 30 min at 4°C. The soluble fractions were subjected to protein purification.
# [4] = 72 h, Hs 578T (H-RasG12D) 3D tumorosphere, 3 days treatment, read-out: IC50
# [5] = Hs 578T 3D tumorosphere, log scale, read-out: logIC50 ± SD (converted)
# [6] = 72 h, MDA-MB-231 (K-RasG13D) 3D tumorosphere, 3 days treatment, read-out: IC50
# [7] = MDA-MB-231 3D tumorosphere, log scale, read-out: logIC50 ± SD (converted)
Structure (SMILES),"IC50 [1, 4] [µM]","IC50 [1, 5] [µM]","IC50 [2, 6] [µM]","IC50 [2, 7] [µM]",KRAS/HRAS mutant cell line DSS3 ratio [2],binding to mutCaM over time [3]
CC(C)c1ccc2cc(C(F)(F)F)c(=O)c3c(N4CCCCC4)c(C=O)c(c1)c23 [Compound 1],22.5,22.4,12,12,4.1,displayed binding to mutCaM
"CC(C)=C[C@H]1C[C@H](C)[C@]2(CC[C@]3(C)C[C@H]4[C@H](C(=O)C[C@@]4(C)O)/C(C=O)=C\C[C@H]32)O1 [OphA, Ophiobolin A, reference compound]",1.8,1.78,0.3,0.288,3.1,no binding was observed to mutCaM
